Reference: US11685732B2, “MYST family histone acetyltransferase inhibitors” (Epizyme, Inc., priority 2017, dated 2023)

How the values were obtained:
KAT-8 = KAT-8 (Homo sapiens (Human), UniProt Q9H7Z6); assay: KAT-8 biochemical inhibition assay (SAMDI mass spectrometry)
Protocol: (§1) KAT-8. Enzyme assay buffer was 50 mM Tris pH 8.0, 0.002% Tween20, 0.005% bovine skin gelatin, and 1 mM dithiothreitol (DTT). For determination of IC50 values, compounds were serially diluted with 2% (v/v) DMSO in the final reaction, pre-incubating each dilution of each compound with 40 μL of assay buffer containing KAT-8 enzyme (12.5 nM final concentration). 10 μL of assay buffer containing 1 μM peptide substrate and 5 μM acetyl coenzyme A (final concentrations) was added. Reactions (50 μL total) were then carried out at 25° C. for 90 minutes. Reactions were terminated by the addition of 0.5% formic acid (final concentration), and a sample of each reaction was analyzed by SAMDI Tech, Inc. (Chicago, Ill.) using self-assembled monolayer desorption/ionization time-of-flight mass spectrometry (Mrksich, M. (2008) Mass spectrometry of self-assembled monolayers: a new tool for molecular surface science. ACS Nano 2, 7-18).

KAT-5 = KAT-5 (Homo sapiens (Human), UniProt Q92993); assay: KAT-5 biochemical inhibition assay (SAMDI mass spectrometry)
Protocol: as §1, with “KAT-5. Enzyme” for “KAT-8. Enzyme”, “containing KAT-5” for “containing KAT-8”, “enzyme (9” for “enzyme (12.5”, “and 0.5” for “and 5”

KAT-6A = KAT-6A (Homo sapiens (Human), UniProt Q92794); assay: KAT-6A biochemical inhibition assay (SAMDI mass spectrometry)
Protocol: as §1, with “KAT-6A. Enzyme” for “KAT-8. Enzyme”, “containing KAT-6A” for “containing KAT-8”, “and 1” for “and 5”

KAT-7 = KAT-7 (Homo sapiens (Human), UniProt O95251); assay: KAT-7 biochemical inhibition assay (SAMDI mass spectrometry)
Protocol: as §1, with “KAT-7. Enzyme” for “KAT-8. Enzyme”, “containing KAT-7” for “containing KAT-8”, “enzyme (6” for “enzyme (12.5”, “and 2” for “and 5”, “for 120” for “for 90”

KAT-5, sequence (Q92993 other isoform, or with tags, fused parts or gaps): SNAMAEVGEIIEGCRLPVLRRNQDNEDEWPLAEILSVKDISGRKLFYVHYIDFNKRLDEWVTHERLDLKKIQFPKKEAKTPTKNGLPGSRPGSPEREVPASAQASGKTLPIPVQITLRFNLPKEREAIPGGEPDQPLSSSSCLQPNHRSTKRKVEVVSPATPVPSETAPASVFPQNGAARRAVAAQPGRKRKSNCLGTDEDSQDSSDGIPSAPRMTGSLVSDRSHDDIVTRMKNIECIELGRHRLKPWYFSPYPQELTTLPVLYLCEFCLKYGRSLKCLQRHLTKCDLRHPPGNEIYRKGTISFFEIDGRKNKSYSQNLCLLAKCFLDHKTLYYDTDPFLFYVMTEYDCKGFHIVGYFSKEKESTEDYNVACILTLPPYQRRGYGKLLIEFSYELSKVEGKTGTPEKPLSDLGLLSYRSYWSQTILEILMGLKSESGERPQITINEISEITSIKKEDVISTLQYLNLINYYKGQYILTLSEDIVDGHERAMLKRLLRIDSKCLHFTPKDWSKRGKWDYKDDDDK
KAT-7, sequence (O95251 other isoform, or with tags, fused parts or gaps): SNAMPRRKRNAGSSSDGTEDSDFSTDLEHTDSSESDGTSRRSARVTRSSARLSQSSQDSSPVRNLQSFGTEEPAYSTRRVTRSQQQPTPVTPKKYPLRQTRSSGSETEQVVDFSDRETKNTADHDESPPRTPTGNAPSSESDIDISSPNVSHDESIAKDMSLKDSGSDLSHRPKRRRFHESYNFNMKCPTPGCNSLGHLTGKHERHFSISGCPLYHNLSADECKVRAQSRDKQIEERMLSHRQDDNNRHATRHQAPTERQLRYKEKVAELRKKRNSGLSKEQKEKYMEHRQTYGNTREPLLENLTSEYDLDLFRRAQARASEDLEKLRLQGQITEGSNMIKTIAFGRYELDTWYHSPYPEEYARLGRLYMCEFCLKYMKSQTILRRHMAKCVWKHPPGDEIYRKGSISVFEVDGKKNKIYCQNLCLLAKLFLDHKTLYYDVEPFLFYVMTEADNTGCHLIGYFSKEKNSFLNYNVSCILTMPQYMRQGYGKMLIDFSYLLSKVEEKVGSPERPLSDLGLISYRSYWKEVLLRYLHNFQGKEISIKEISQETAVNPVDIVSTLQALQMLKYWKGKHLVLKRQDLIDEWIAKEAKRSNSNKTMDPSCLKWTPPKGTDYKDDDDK
KAT-6A, sequence (Q92794 other isoform, or with tags, fused parts or gaps): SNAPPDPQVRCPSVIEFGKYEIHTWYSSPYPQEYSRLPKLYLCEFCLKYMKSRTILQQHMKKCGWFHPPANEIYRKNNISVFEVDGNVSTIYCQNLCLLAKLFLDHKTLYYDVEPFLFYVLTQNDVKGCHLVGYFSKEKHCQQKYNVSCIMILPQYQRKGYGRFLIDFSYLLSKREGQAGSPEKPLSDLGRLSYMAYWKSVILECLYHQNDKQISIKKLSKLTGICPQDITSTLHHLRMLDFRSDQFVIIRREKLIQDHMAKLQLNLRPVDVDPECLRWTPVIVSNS
KAT-8, sequence (Q9H7Z6 other isoform, or with tags, fused parts or gaps): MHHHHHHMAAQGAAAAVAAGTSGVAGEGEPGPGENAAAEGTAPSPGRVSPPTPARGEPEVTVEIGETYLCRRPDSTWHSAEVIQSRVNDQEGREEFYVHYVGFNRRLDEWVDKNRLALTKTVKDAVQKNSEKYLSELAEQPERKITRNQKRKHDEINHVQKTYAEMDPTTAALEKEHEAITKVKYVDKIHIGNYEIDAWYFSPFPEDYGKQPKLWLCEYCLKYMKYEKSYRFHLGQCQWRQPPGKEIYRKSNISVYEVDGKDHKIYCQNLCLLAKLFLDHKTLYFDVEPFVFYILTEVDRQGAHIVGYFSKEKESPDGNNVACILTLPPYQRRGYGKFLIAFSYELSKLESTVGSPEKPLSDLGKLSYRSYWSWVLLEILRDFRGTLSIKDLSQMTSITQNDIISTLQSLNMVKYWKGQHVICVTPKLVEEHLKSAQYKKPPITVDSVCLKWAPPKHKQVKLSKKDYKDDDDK

SMILES	IC50 (KAT-8) [µM]	IC50 (KAT-5) [µM]	IC50 (KAT-6A) [µM]	IC50 (KAT-7) [µM]
Cn1cnc(-c2cc(Cl)c(F)c(C(=O)NNS(=O)(=O)C[C@H]3CC[C@H]4CC[C@@H]3N4C(=O)OC(C)(C)C)c2)c1 [Compound I-259]	10 to 50	< 10	10 to 50	
Cn1cnc(-c2cc(Cl)c(F)c(C(=O)NNS(=O)(=O)CC3CCC(OCCO)CC3)c2)c1 (stereo not drawn) [Compound I-467]		< 10	< 10	< 10
Cn1cnc(-c2cc(Cl)c(F)c(C(=O)NNS(=O)(=O)C[C@H]3CC[C@H](N(C)CC(F)(F)F)CC3)c2)c1 [Compound I-471]		< 10	< 10	< 10
CN(CC(F)(F)F)C1CCCC(CS(=O)(=O)NNC(=O)c2cc(-c3cn(C)cn3)cc(Cl)c2F)C1 (stereo not drawn) [Compound I-473]		< 10	10 to 50	< 10
Cn1cnc(-c2cc(C(=O)NNS(=O)(=O)CC3CCCCC3)c(F)c(Cl)c2N(C(=O)OC(C)(C)C)C(=O)OC(C)(C)C)c1 [Compound I-475]		> 100	> 100	50 to 100
Cn1cnc(-c2cc(Cl)c(F)c(C(=O)NNS(=O)(=O)Cc3ccn(C)n3)c2)c1 [Compound I-479]		< 10	< 10	< 10
Cn1cnc(-c2cc(Cl)c(F)c(C(=O)NNS(=O)(=O)Cc3ccnn3C)c2)c1 [Compound I-480]		10 to 50	10 to 50	< 10
O=C(NNS(=O)(=O)c1cccc(O)c1)c1cc(-c2ccccn2)cc(Cl)c1F [Compound I-481]		< 10	< 10	< 10
Cn1cnc(-c2cc(Cl)c(F)c(C(=O)NNS(=O)(=O)Cc3ccnn3C)c2)c1 [Compound I-482]		10 to 50	10 to 50	

The remaining lines, values ahead:

IC50 (KAT-8) [µM]	IC50 (KAT-5) [µM]	IC50 (KAT-6A) [µM]	IC50 (KAT-7) [µM]	SMILES
10 to 50				CNC(=O)N[C@H]1C[C@@H](CS(=O)(=O)NNC(=O)c2cc(-c3cn(C)cn3)cc(Cl)c2F)C1 [Compound I-197]
10 to 50	10 to 50	10 to 50		C[C@@H]1CNC[C@H]1CS(=O)(=O)NNC(=O)c1cc(-c2cn(C)cn2)cc(Cl)c1F [Compound I-263]
10 to 50	< 10	< 10		Cn1cnc(-c2cc(Cl)c(F)c(C(=O)NNS(=O)(=O)CC3CCCC(NC(=O)Cc4ccccn4)C3)c2)c1 (stereo not drawn) [Compound I-268]
10 to 50	< 10	< 10		Cn1cnc(-c2cc(Cl)c(F)c(C(=O)NNS(=O)(=O)C[C@H]3CC[C@H](NC(=O)c4ccncc4)CC3)c2)c1 [Compound I-269]
10 to 50	< 10	< 10		COC1CCCC(CS(=O)(=O)NNC(=O)c2cc(-c3cn(C)cn3)cc(Cl)c2F)C1 (stereo not drawn) [Compound I-270]
> 100				COc1ccc(COc2cccc(S(=O)(=O)NNC(=O)c3cc(-c4cn(C)cn4)cc(Cl)c3F)c2)cc1 [Compound I-397]
	< 10	< 10	< 10	Cn1cnc(-c2cc(Cl)c(F)c(C(=O)NNS(=O)(=O)Cc3nn(C)cc3Cl)c2)c1 [Compound I-474]
	< 10	< 10	< 10	Cn1cnc(-c2cc(C(=O)NNS(=O)(=O)CC3CCCCC3)c(F)c(Cl)c2N)c1 [Compound I-476]
	< 10	10 to 50		Cn1cnc(-c2cc(Cl)c(F)c(C(=O)NNS(=O)(=O)Cc3c(Cl)cnn3C)c2)c1 [Compound I-477]
	< 10	< 10	< 10	CCc1cccc(S(=O)(=O)NNC(=O)c2cc(-c3ccccn3)cc(Cl)c2F)c1 [Compound I-478]
	< 10	< 10	< 10	CCc1cc(O)cc(S(=O)(=O)NNC(=O)c2cc(-c3ccccn3)cc(Cl)c2F)c1 [Compound I-483]
